The test deals with alpha-L-fucosidase (Bos taurus). In words: Inhibitory activity against alpha-Fucosidase in bovine kidney.

Two compounds from BindingDB's records for doi:10.1016/s0960-894x(03)00742-x (Keio University, 2003) can be followed below.

SMILES strings stand for the structures. pIC50: −log10 of the molar value.

In turn, `CCCCCCCCCCCCN[C@H]1CC(C)[C@@H](O)C(O)[C@@H]1O` (stereo partly drawn) [(1R,3R,4S)-4-Dodecylamino-6-methyl-cyclohexane-1,2,3-triol] had a pIC50 of 5.92. Under `C[C@@H]1CC(NCCc2ccccc2)[C@@H](O)[C@@H](O)[C@@H]1O` (some centres not stated) stands 5.12.
